Assay results from PMC5011342, “A high throughput drug screening assay to identify compounds that promote oligodendrocyte differentiation using acutely dissociated and purified oligodendrocyte precursor cells” (BMC Research Notes, 2016).
Like-named read-outs stand apart in the source and are kept apart here.

How the values were obtained:
expanded OPCs = assay: cells; details: for viability at 0.1 µM / viability at 1 µM / viability at 10 µM: Rattus norvegicus, 72 h
Outline: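 Toxicity screen: compounds added at 0.1, 1 and 10 µM to PDGF-AA-expanded OPCs in 96-well plates, 3-day incubation at 37 °C, 10% CO2, then alamarBlue 1:10 for 4 h with fluorescence readout. Results set screening doses of 10/2, 2/0.4 or 0.4/0.08 µM.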

[1] = tested on: acutely dissociated and purified rat OPCs; assay: Acute OL differentiation assay (MBP expression/cell, immunofluorescent image quantification); assay type: cell-based; details: sheet "All OLga data"; for activation at 2 µM / activation at 10 µM / activation at 0.08 µM / activation at 0.4 µM: Rattus norvegicus; for activation at 0.08 µM: 0.08 uM test compound, read-out: OL differentiation, 0.08 uM (% Quet); for activation at 0.4 µM: 0.4 uM test compound, read-out: OL differentiation, 0.4 uM (% Quet)
Outline: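 This acute differentiation assay used purified rat OPCs from postnatal day 6–7 pups, seeded into PDL/laminin-coated 96-well plates in differentiation medium lacking PDGF and FGF. Compounds were applied in quadruplicate after a 1–2 h preincubation at 37 °C, 10 % CO2, with 0.1 % DMSO negative and 40 ng/ml T3 positive controls in eight wells. After fixation on DIV4, anti-MBP immunofluorescence images yielded MBP expression/cell.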

[2] = alamarBlue viability of expanded OPCs, compound at 0.1 µM, relative to DMSO control
[3] = alamarBlue viability of expanded OPCs, compound at 1 µM, relative to DMSO control
[4] = alamarBlue viability of expanded OPCs, compound at 10 µM, relative to DMSO control
[5] = test compound at 2 uM, NCC library screen, relative to quetiapine, read-out: 2 uM (% Quet)
[6] = test compound at 10 uM, NCC library screen, relative to quetiapine, read-out: 10 uM (% Quet)
[7] = read-out: 0.1 µM (% DMSO), alamarBlue viability, NCC library compound at 0.1 µM, sheet "All Tox data"
[8] = read-out: 1 µM (% DMSO), alamarBlue viability, NCC library compound at 1 µM, sheet "All Tox data"
[9] = read-out: 10 µM (% DMSO), alamarBlue viability, NCC library compound at 10 µM, sheet "All Tox data"
[10] = read-out: 0.1 µM (% DMSO), alamarBlue viability of expanded OPCs, compound at 0.1 µM, sheet All Tox data
[11] = read-out: 1 µM (% DMSO), alamarBlue viability of expanded OPCs, compound at 1 µM, sheet All Tox data
[12] = read-out: 10 µM (% DMSO), alamarBlue viability of expanded OPCs, compound at 10 µM, sheet All Tox data
[13] = 2 uM test compound, relative to quetiapine, read-out: OL differentiation, 2 uM (% Quet)
[14] = 10 uM test compound, relative to quetiapine, read-out: OL differentiation, 10 uM (% Quet)
[15] = test compound at 2 uM, MBP expression relative to quetiapine, NCC library screen, read-out: 2 uM (% Quet)
[16] = test compound at 10 uM, MBP expression relative to quetiapine, NCC library screen, read-out: 10 uM (% Quet)

Compound | 0.1 µM (% DMSO) (expanded OPCs; [2]) | 1 µM (% DMSO) (expanded OPCs; [3]) | 10 µM (% DMSO) (expanded OPCs; [4]) | activation at 2 µM [1, 5] [%] | activation at 10 µM [1, 6] [%] | viability at 0.1 µM (expanded OPCs; [7]) [%] | viability at 1 µM (expanded OPCs; [8]) [%] | viability at 10 µM (expanded OPCs; [9]) [%] | also measured
CCCNC(C)C(=O)Nc1ccccc1C (centres unmarked) [Prilocaine] | 89.7 | 89.9 | 89.6 | 2.7 | -1.2 | – | – | – | –
CCCCN1CCCCC1C(=O)Nc1c(C)cccc1C (centres unmarked) [Bupivacaine] | – | – | – | -1 | 7 | 79.1 | 83.4 | 70.5 | –
CCCCNC(=O)NS(=O)(=O)c1ccc(C)cc1 [Tolbutamide] | – | – | – | -1.3 | 20.2 | 105 | 107 | 117 | –
CC(=O)NCCCCCCNC(C)=O [Hexamethylene bisacetamide] | – | – | – | – | – | – | – | – | viability at 0.1 µM (expanded OPCs; [10]): 80.5%; viability at 1 µM (expanded OPCs; [11]): 83.1%; viability at 10 µM (expanded OPCs; [12]): 87.3%; activation at 2 µM [1, 13]: 4.1%; activation at 10 µM [1, 14]: 12.8%
CC1=C(C/C=C(\C)CCC[C@H](C)CCC[C@H](C)CCCC(C)C)C(=O)c2ccccc2C1=O [Phylloquinone] | – | – | – | – | – | – | – | – | 0.1 µM (% DMSO) (expanded OPCs): 96.6 % DMSO; 1 µM (% DMSO) (expanded OPCs): 89.8 % DMSO; 10 µM (% DMSO) (expanded OPCs): 87.4 % DMSO; 2 uM (% Quet) ([1]; test compound at 2 uM, NCC library screen, relative to quetiapine): 17.4 % Quet; 10 uM (% Quet) ([1]; test compound at 10 uM, NCC library screen, relative to quetiapine): -25.4 % Quet
CNC1CC(c2ccc(Cl)c(Cl)c2)c2ccccc21 (centres unmarked) [Indatraline] | – | – | – | – | – | – | – | – | viability at 0.1 µM (expanded OPCs; [10]): 75.5%; viability at 1 µM (expanded OPCs; [11]): 41.1%; viability at 10 µM (expanded OPCs; [12]): 11.7%; activation at 0.08 µM ([1]; relative to quetiapine): 15.3%; activation at 0.4 µM ([1]; relative to quetiapine): 24.5%
C[C@]12C=CC(=O)C=C1CC[C@@H]1[C@@H]2[C@@H](O)C[C@@]2(C)[C@H]1CC[C@]2(O)C(=O)CO [Prednisolone] | 117.5 | 112.6 | 109.9 | -21.9 | -15.7 | – | – | – | –
CC(C)(C)C(O)/C=C/c1ccc2c(c1)OCO2 (centres unmarked) [Stiripentol] | – | – | – | -12 | -14.2 | 85.4 | 89.5 | 83.7 | –
COC(=O)C1=C(C)NC(C)=C(C(=O)OCC(C)C)C1c1ccccc1[N+](=O)[O-] (centres unmarked) [Nisoldipine] | – | – | – | – | – | – | – | – | viability at 0.1 µM (expanded OPCs; [10]): 94.2%; viability at 1 µM (expanded OPCs; [11]): 11.9%; viability at 10 µM (expanded OPCs; [12]): 11.4%; activation at 0.08 µM ([1]; relative to quetiapine): -23.7%; activation at 0.4 µM ([1]; relative to quetiapine): -133%
Sc1ncnc2nc[nH]c12 [Mercaptopurine] | 92.3 | 92.7 | 95.9 | – | – | – | – | – | activation at 2 µM [1, 15]: 3.6%; activation at 10 µM [1, 16]: -5.6%
Cc1onc(-c2c(Cl)cccc2Cl)c1C(=O)N[C@@H]1C(=O)N2[C@@H]1SC(C)(C)[C@@H]2C(=O)O [Dicloxacillin] | 93.5 | 91.4 | 76.5 | – | – | – | – | – | activation at 2 µM [1, 15]: -0.7%; activation at 10 µM [1, 16]: -16.9%
COc1ccccc1OCC(O)COC(N)=O (centres unmarked) [Methocarbamol] | 89.9 | 92.3 | 88.1 | 2.8 | -3.7 | – | – | – | –
O=C1NC(C(=O)O)CS1 (centres unmarked) [2-oxothiazolidine-4-carboxylic acid] | – | – | – | – | – | – | – | – | 0.1 µM (% DMSO) (expanded OPCs; alamarBlue viability of expanded OPCs, compound at 0.1 µM, sheet All Tox data): 78.9 % DMSO; 1 µM (% DMSO) (expanded OPCs; alamarBlue viability of expanded OPCs, compound at 1 µM, sheet All Tox data): 89.6 % DMSO; 10 µM (% DMSO) (expanded OPCs; alamarBlue viability of expanded OPCs, compound at 10 µM, sheet All Tox data): 83.7 % DMSO; OL differentiation, 2 uM (% Quet) ([1]; 2 uM test compound, relative to quetiapine): -5.5 % Quet; OL differentiation, 10 uM (% Quet) ([1]; 10 uM test compound, relative to quetiapine): 20.5 % Quet
CSc1nc2cc(Cl)c(Oc3cccc(Cl)c3Cl)cc2[nH]1 [Triclabendazole] | – | – | – | – | – | – | – | – | viability at 0.1 µM (expanded OPCs; [10]): 96.9%; viability at 1 µM (expanded OPCs; [11]): 131%; viability at 10 µM (expanded OPCs; [12]): 11.1%; activation at 0.4 µM ([1]; relative to quetiapine): -13.1%; activation at 2 µM [1, 13]: -46.6%
COC(=O)C1=C(C)NC(C)=C(C(=O)OC(C)C)C1c1cccc2nonc12 (centres unmarked) [Isradipine] | – | – | – | – | – | 89.4 | 80.5 | 45.6 | activation at 0.4 µM ([1]; relative to quetiapine): -7.2%; activation at 2 µM [1, 13]: -6.1%
Cc1[nH]c(=O)c(C#N)cc1-c1ccncc1 [Milrinone] | – | – | – | – | – | 87.2 | 85.8 | 79.6 | activation at 2 µM [1, 13]: 5.1%; activation at 10 µM [1, 14]: -2.1%
